Assay [1] concerns T lymphocytes. In words: Inhibition of proliferation (DNA synthesis, tritium thymidine incorporation) of PHA-stimulated T lymphocytes. Conditions: Homo sapiens, T-lymphocyte, read-out: IC50(Tc) Measured DNA-Supp. It is filed as cell-based. The protocol: Peripheral blood mononuclear cells (PBMC) from healthy human volunteers were freshly isolated by density gradient centrifugation. T lymphocytes (T cells, Tc) were isolated from PBMC fractions via nylon wool adherence. Cells were cultured in standard cell culture media and stimulated by addition of 1 µg/ml Phytohemagglutinine for 48 hours in 96 well flat-bottom microtitre plates. […] DNA synthesis of proliferating T cells was determined by incorporation of radio labelled tritium thymidine and subsequent radio detection. […] The IC50 value of proliferation suppression was assessed by graphical evaluation.

The target in assay [2] is DP8/9. As to the kind of experiment: Inhibition of the enzymatic activity of DPIV related enzymes DP8/9. It counts as biochemical. The note with it: > 25: No inhibition. An excerpt: Measurement of the enzymatic activity of DPIV and related enzymes
Assay [3] has as its target purified, recombinant human DPIV (Homo sapiens, UniProt P27487). In words: Inhibition of the enzymatic activity of DPIV, fluorogenic substrate (Ala-Pro)2-R110. Conditions: substrate 0.5 µM, pH 7.5; highest test concentration 25 µM; > 25: No inhibition. It counts as biochemical. The protocol: The assay was performed in 0.05 M TRIS/HCl buffer, pH 7.5, supplemented with 0.05 % Triton® (v/v), 0.05 % BSA (w/v), 2 mM MgCl2.
The enzymatic activity of DPIV was assessed by the hydrolysis of the fluorogenic substrate Bis-(L-Alanyl-Prolyl)-Rhodamin-110 (Bis-Trifluoroacetate; abbreviation: (Ala-Pro)2-R110). The final substrate concentration was 0.5 µM.
The assay was performed in white microtitre plates for fluorescence measurements. The test items, substrate and enzyme, were diluted in assay buffer. […] For the calculation of IC50 values, at least 16 log2 dilutions of each test item were analyzed. As controls, the DPIV activity in the absence of test items as well as the spontaneous hydrolysis of the substrate was determined.

Where [4] appears, read: suppression of DNA synthesis of T cells, 1 µg/ml Phytohemagglutinine, 48 hours, graphical evaluation.

Read-outs that look alike come from different tables or passages of the source.

purified, recombinant human DPIV, sequence (P27487 whole entry): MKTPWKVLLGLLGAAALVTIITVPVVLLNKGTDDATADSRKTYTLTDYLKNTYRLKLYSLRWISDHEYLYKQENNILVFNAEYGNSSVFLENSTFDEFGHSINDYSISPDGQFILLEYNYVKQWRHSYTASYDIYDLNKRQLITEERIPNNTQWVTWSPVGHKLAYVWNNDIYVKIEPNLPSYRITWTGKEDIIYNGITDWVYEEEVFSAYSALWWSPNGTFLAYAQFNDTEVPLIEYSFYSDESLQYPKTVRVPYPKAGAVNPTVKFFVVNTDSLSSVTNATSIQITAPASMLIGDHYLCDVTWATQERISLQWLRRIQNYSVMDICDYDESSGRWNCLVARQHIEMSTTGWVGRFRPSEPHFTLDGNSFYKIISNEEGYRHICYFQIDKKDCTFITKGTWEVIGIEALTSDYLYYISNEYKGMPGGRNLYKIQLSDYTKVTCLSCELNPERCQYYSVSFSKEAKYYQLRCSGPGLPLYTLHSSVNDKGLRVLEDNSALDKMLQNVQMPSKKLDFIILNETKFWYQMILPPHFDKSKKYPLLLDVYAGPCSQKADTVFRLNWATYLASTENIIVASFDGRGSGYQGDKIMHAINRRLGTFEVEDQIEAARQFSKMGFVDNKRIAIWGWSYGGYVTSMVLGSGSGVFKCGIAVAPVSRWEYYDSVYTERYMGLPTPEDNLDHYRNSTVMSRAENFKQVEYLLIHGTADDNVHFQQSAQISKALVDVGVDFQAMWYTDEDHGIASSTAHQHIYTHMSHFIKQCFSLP

On to `N[C@@H](CC(=O)N1CCn2c(nnc2C(F)(F)F)C1)Cc1cc(F)ccc1F` [No. 1, (1R)-1-(2,5-Difluorobenzyl)-3-oxo-3-[3-(trifluoromethyl)-5,6-dihydro[1,2,4]triazolo[4,3-a]pyrazine-7(8H)-yl]propylamine], for which, in assay [1] (48 h), the IC50 came out at 200 µM.

Regarding `NC(CC(=O)N1CCN(C(c2ccc(F)cc2)c2ccc(F)cc2)CC1)C(=O)N1Cc2ccccc2C1` (stereo not shown) [No. 13, 2-Amino-1-(1,3-dihydro-2H-isoindol-2-yl)-4-(4-bis(4-fluorophenyl)-methylpiperazine-1-yl) butane-1,4-dione], the IC50 in assay [1] (48 h) was 6 µM.

With `NC(CC(=O)N1CCn2c(nnc2C(F)(F)F)C1)Cc1cc(F)c(F)cc1F` (stereo not shown) [No. 10, 3-Oxo-1-(2,4,5-trifluorobenzyl)-3-[3-(trifluoromethyl)-5,6-dihydro-[1,2,4]triazolo[4,3-a]pyrazine-7(8H)-yl]propyl amine], the IC50 in assay [1] (setting [4]) came to 148 µM; in assay [2], 15.3 µM.

Take `CCCCCC(=O)NC(CC(=O)NCC(C)(C)CNC(=O)C(O)C(Cc1ccccc1)NC(=O)CCCCC)Cc1cc(F)ccc1F` (stereo not shown) [No. 7, 3-Amino-5-phenyl-N-{3-[(3-amino-1-oxohexyl-2-hydroxypropanoyl)amino-1-oxohexyl]-2,2-dimethylpropyl}-5-(2,5-difluorophenyl)pentane 3-N-tert.butyl carbamate]: the values for the IC50 in assay [3], in assay [1] (48 h) and in assay [2] were greater than 25 µM, 10 µM and greater than 25 µM, respectively.

On to `Cc1[nH]c2ccccc2c1C(c1cc(Cl)ccc1O)N1CCOCC1` (stereo not shown) [No. 16, 4-Chloro-2-[(2-methyl-1H-indol-3-yl)(morpholin-4-yl)methyl]-benzenolate], for which the IC50 is greater than 25 µM in assay [3] and 3 µM in assay [1] (setting [4]).

On to `NC(CCCCNC(=O)c1ccc(S)nc1)C(=O)N1CCSC1` (stereo not shown) [No. 8, N-[5-Amino-6-oxo-6-(1,3-thiazolidine-3-yl)hexyl]-6-mercapto nicotinamide], for which the results for the IC50 in assay [3], in assay [1] (48 h) and in assay [2] were 0.09 µM, 90 µM and 0.001 µM, respectively.

Consider `NC(CNC(=O)c1cccc(NC(=O)C(O)C(N)Cc2ccc(-c3cccnc3)cc2)c1)Cc1cc(F)ccc1F` (stereo not shown) [No. 15, 3-[(3-Amino-2-4-(4-(3-pyridinyl)-phenyl) hydroxybu-tanoyl)-amino]-N-(2-amino-5-(2,4-difluorophenyl)pentyl) ben-zamide], for which the IC50 in assay [1] (setting [4]) worked out at 24 µM; in assay [2] it was 8.5 µM.

With `CC(C)C(Oc1ccc(CNC(=O)C2CCCN2C(=O)CC(N)Cc2cc(F)ccc2F)cc1)C(=O)O` (stereo not shown) [No. 2, 2-[({[1-(3-Amino, 2-(2, 5)-difluorophenylbutanoyl)pyrrolidin-2-yl]carbonyl}amino)-p-phenoxy]-3-methyl butanoic acid], the IC50 was 0.48 µM in assay [3], 81 µM in assay [1] (setting [4]) and greater than 25 µM in assay [2].

In the case of `CC(C)(CNC(=O)CC(Cc1cc(F)ccc1F)NC(=O)OC(C)(C)C)CNC(=O)C(O)C(Cc1ccccc1)NC(=O)OC(C)(C)C` (stereo not shown) [No. 6, 3-N-tert.-Butylcarbamato-5-phenyl-N-{3-[(3-amino-2-hydroxypropanoyl)-amino]-2,2-dimethylpropyl}-5-(2,5-difluorophenyl) pentane 3-amine], the IC50 is greater than 25 µM in assay [3], 8 µM in assay [1] (48 h) and greater than 25 µM in assay [2].

With `CC[C@H](C)[C@H](N)C(=O)N1CCSC1` [No. 4, (1S,2S)-2-Methyl-1-(1,3-thiazolidine-3-ylcarbonyl) butyl amine], the IC50 in assay [1] (48 h) stood at 113 µM; in assay [2], 1.73 µM.

The values above are taken from patent EP2366394A1, “Characterization and validation of inhibitors and ligands of dipeptidyl aminopeptidase IV (DP IV)” (IMTM GmbH, priority 2010, dated 2011).
